Legend:
[1] = system: CCl4-induced liver fibrosis in mice; assay: CCl4-induced liver fibrosis in mice, HE staining and Sirius-red staining of liver tissue; assay type: in vivo
Procedure: Experimental materials include 60 healthy male C57 mice (20-25g/mouse), gavage needles, 1 milliliter (mL) syringes, CCl4 solution, olive oil and sotalol solution. Experimental method is as follows. The CCl4 solution is dissolved in the olive oil solution (CCl4: olive oil=1:[…]), prepared and used immediately, concentration is 0.1milliliters per 20 grams (0.1 mL/20 g), intragastrically administered twice a week for a total of 8 weeks to the mice. The sotalol solution is mixed with physiological saline, prepared and used immediately, concentration is 1 millimole per liter (mM), 0.2 mL/20 g, and intraperitoneally injected once a day for a total of 6-8 weeks to the mice. The mice are randomly divided into four groups: a. a normal control group; b. a model group, mice are intragastrically administered the CCl4 for 8 weeks; c. a CCl4 and sotalol group, mice are treated with the CCl4 alone for 2 weeks, followed by concurrent administration of the sotalol and CCl4 for 6 weeks; d. a sotalol group, mice are intraperitoneally injected the sotalol for 8 weeks. The mice are sacrificed in sequence at the 2nd, 4th, 6th, and 8th weeks of modeling, one for each group, liver samples of the mice are taken out and placed in a -80 Celsius degree (° C.) refrigerator for quick-frozen storage, and other livers are fixed in 4% paraformaldehyde for 24 hours and then embedded in paraffins. […] Then, all mice are sacrificed, and eyeball blood of mice is taken to measure liver function indexes (alanine transaminase abbreviated as ALT, aspartate transaminase abbreviated as AST). In addition, the liver tissue is fixed with formaldehyde and embedded in paraffins for later use.

[2] = system: α-SMA; assay: α-SMA expression in liver tissue detected by immunohistochemistry; assay type: in vivo; settings: liver fibrosis mice induced by CCl4, treated with sotalol
Procedure: Experimental methods are as follows. The paraffin blocks prepared in the embodiment 1 are taken and performed immunohistochemistry according to the procedures after slicing into slices. The slices are soaked in 100%, 95%, 80%, and 75% ethanol for 5 minutes sequentially in that order, then rinsed them with the PBS solution, catalase is removed by using hydrogen peroxide, and antigens are repaired by sodium citrate repair solution. After cooling, the treated slices are rinsed with the PBS solution, sealed at room temperature for 30 minutes, then incubated overnight at 4° C. with primary antibodies, and incubated at room temperature with secondary antibodies for 1 hour on the next day. Then, the incubated slices are stained with diaminobenzidine (DAB), counterstained with hematoxylin, differentiated with hydrochloric acid alcohol, dehydrated, sealed, and finally observed and photographed under the microscope.

[3] = system: α-SMA, LC3, p62, N-cadherin, vimentin, ZO-1 in liver tissue; assay: Expression of α-SMA, autophagy-related index and EMT markers in liver tissue by Western-blot; assay type: in vivo, mice; settings: liver tissue induced by CCl4, after treatment with sotalol
Text: Experimental materials include mouse liver tissue, a tweezer, a scissor, 2 millimeters (mm) steel balls, a magnet, a cell lysis solution, a PBS solution, a bicinchoninic acid (BCA) protein quantitative kit, defatted milk powder, and primary antibodies and corresponding secondary antibodies related to α-SMA, autophagy and EMT. Experimental method are as follows. The liver tissue in the embodiment 1 is taken about the size of a grain of rice by using the tweezer and the scissor, added to labeled 1.5 mL Eppendorf (EP) tubes, two 2 mm steel balls and 200-250 microliter (μL) cell lysis solution are added into each of the EP tubes, after the parameters are set, and the EP tubes are placed in the grinder for full grinding. Then, the steel balls are sucked out by using the magnet, and after being applied to the ice for 30 minutes, the EP tubes are centrifuged at 12000 revolutions per minute (rpm) for 30 minutes at 4° C. A standard curve is made, 1 μL protein samples, 19 μL PBS solution and 200 μL (50:1) BCA working solution are added in each well of a 96-well plate, and two replicate wells are added per well. The 96-well plate is put in a 37°° C. drying oven for 30 minutes. The optical density (OD) value at 560 nanometers (nm) is measured by using an enzyme-linked immunosorbent assay (ELISA) on the machine to calculate the concentration of the protein. The protein is boiled in boiling water for 5 minutes before samples loading, and the samples are performed with gel electrophoresis, membrane transfer and blocking sequentially, then the treated samples are exposed after incubating with the primary antibodies and the secondary antibodies.

[4] = system: HSC-T6 cells; assay: Sotalol and TGF-β1 co-culture, proliferation of hepatic stellate cells detected by CCK-8; assay type: cell-based, rat; settings: sotalol 200, 400, 800, 1000 μM added 3 hours before TGF-β1 10 ng/ml; 48 hours incubation
Procedure: Experimental materials include HSC-T6 cells (also referred to as immortalized hepatic rat stellate cell line), a Dulbecco's modified Eagle's medium (DMEM) complete medium, a 96-well plate, a counting chamber (also referred to as hemocytometer), CCK-8 working solution, and the like. Experimental method are as follows. The HSC-T6 cells are cultured in the DMEM culture medium containing 10% fetal bovine serum, 1% double antibodies (penicillin-streptomycin solution) and 1% nonessential amino acid (NEAA) at 37° C. and 5% CO2, and the cells are digested by using trypsin for passage cultivation after the cells are converged to 80% to 90%. Next, the cells are inoculated in the plate, specifically, a density of 7×10^6 cells per liter (cells/L) cell suspension is taken and added at 100 μL cell suspension per well to the 96-well culture plate, each group has 6 replicate wells. […] After incubation for 48 hours, 100 μL of “10% CCK-8 and 90% medium” mixed solution is added to each well and incubated for 1 hour to 4 hours at 37° C., the wavelength is set at 450 nm, and absorbance value is read and recorded at the corresponding wavelength by using a fully-automated enzyme labeling instrument. Effects of sotalol on cell proliferation are detected by CCK-8, and an optimal time of action and an optimal drug concentration are screened.

[5] = system: α-SMA, LC3, p62, ZO-1, N-cadherin, vimentin in HSC-T6 cells; assay: Expression of α-SMA, autophagy-related index and EMT markers in HSCs by Western-blot; assay type: cell-based, rat; settings: sotalol 400 μM, TGF-β1 10 ng/mL, 48 hours
Procedure: Experimental materials include HSC-T6 cells, a DMEM complete medium, cell culture dishes, a cell lysis solution, a PBS solution, a BCA protein quantitative kit, defatted milk powder, primary antibodies and corresponding secondary antibodies related to α-SMA, autophagy and EMT. Experimental method are as follows. The experiment is grouped into a normal control group, a TGF-β 1 group, a sotalol +TGF-β1 group, and a sotalol group, where the stimulation concentration of the TGF-β1 is 10 ng/mL and concentration of the sotalol is 400 μM. The HSC-T6 cells are cultured by using cell culture dishes, incubated, dosed, and added with TGF-β1according to the conditions described in the embodiment 4. After 48 hours, the incubated cells are rinsed by the precooled PBS solution for 3-4 times, and residual PBS liquid is absorbed with a filter paper, 50 μL radioimmune precipitation assay (RIPA) and 0.5 μL (100:1) phenylmethanesulfonyl fluoride (PMSF) with […] concentration are added in a 50 mL culture flask and placed on ice for 30 minutes. Then, the protein is scraped by a cell scraper from the culture flask and suctioned out into the EP tubes, and centrifuged at 12000 rpm for 30 minutes at 4° C. A standard curve is made, 1 μL protein samples, 19 μL PBS solution and 200 μL (50:1) BCA working solution are added in each well of the 96-well plate, and two replicate wells are added per well. The 96-well plate is put in a 37° C. drying oven for 30 minutes. The OD value at 560 nm is measured by using an enzyme-linked immunosorbent assay on the machine to calculate the concentration of the protein. The protein is boiled in boiling water for 5 minutes before samples loading, and the samples are performed with gel electrophoresis, membrane transfer and blocking sequentially, then the treated samples are exposed after incubating with the primary antibodies and the secondary antibodies.

[6] = CCl4 and sotalol group: CCl4 alone 2 weeks, then sotalol (1 mM, 0.2 mL/20 g, i.p. once a day) plus CCl4 for 6 weeks, vs model group

CC(C)NCC(O)c1ccc(NS(C)(=O)=O)cc1 (centres unmarked) [sotalol]
degree of damage of the liver tissue (HE staining) [1, 6]: significantly reduced | degree of fibrous tissue proliferation (HE staining) [1, 6]: significantly reduced | collagen fibers (Sirius-red staining), induction of liver fibrosis by sotalol alone ([1]; sotalol group: sotalol 1 mM, 0.2 mL/20 g, i.p. once a day for 8 weeks, no CCl4): no obvious collagen fibers are observed | expression of α-SMA in liver tissue (immunohistochemistry) [2]: down-regulate | accumulation of ZO-1 in liver tissue (Western-blot) [3]: promoted | accumulation of p62 in liver tissue (Western-blot) [3]: promoted | expression of LC3 in liver tissue (Western-blot) [3]: significantly reduced | expression of N-cadherin in liver tissue (Western-blot) [3]: inhibited | expression of vimentin in liver tissue (Western-blot) [3]: inhibited | expression of α-SMA in liver tissue (Western-blot) [3]: significantly reduced | TGF-β1-induced proliferation trend of HSC-T6 cells (CCK-8) [4]: inhibited | accumulation of P62 in HSCs (Western-blot) [5]: promoted | accumulation of ZO-1 in HSCs (Western-blot) [5]: promoted | expression of LC3 in HSCs (Western-blot) [5]: significantly inhibited | expression of N-cadherin in HSCs (Western-blot) [5]: inhibited | expression of vimentin in HSCs (Western-blot) [5]: inhibited | expression of α-SMA in HSCs (Western-blot) [5]: significantly reduced

Reference: patent US20240390308A1, “APPLICATION METHOD OF POTASSIUM ION CHANNEL BLOCKER IN PREPARATION OF DRUGS FOR TREATING LIVER FIBROSIS” (Affiliated Hospital of Zunyi Medical University, priority 2023, published 2024)
